The values that follow come from ChEMBL document CHEMBL1201862, “PubChem BioAssay data set” (2004).

The structures appear in SMILES notation. Activity calls are given as the source filed them.

The target of assay [1] is Lysosomal acid glucosylceramidase (Homo sapiens, UniProt P04062). Kind of assay: Dose response cell-based high throughput screening assay to identify enhancers of beta-glucosidase activity. [Related pubchem assays: 784 ]. Type of assay: functional.
Assay [2] addresses T1, Eukaryotic translation initiation factor 2-alpha kinase 3 (Homo sapiens, UniProt Q9NZJ5).
T1 sequence (Q9NZJ5 whole entry): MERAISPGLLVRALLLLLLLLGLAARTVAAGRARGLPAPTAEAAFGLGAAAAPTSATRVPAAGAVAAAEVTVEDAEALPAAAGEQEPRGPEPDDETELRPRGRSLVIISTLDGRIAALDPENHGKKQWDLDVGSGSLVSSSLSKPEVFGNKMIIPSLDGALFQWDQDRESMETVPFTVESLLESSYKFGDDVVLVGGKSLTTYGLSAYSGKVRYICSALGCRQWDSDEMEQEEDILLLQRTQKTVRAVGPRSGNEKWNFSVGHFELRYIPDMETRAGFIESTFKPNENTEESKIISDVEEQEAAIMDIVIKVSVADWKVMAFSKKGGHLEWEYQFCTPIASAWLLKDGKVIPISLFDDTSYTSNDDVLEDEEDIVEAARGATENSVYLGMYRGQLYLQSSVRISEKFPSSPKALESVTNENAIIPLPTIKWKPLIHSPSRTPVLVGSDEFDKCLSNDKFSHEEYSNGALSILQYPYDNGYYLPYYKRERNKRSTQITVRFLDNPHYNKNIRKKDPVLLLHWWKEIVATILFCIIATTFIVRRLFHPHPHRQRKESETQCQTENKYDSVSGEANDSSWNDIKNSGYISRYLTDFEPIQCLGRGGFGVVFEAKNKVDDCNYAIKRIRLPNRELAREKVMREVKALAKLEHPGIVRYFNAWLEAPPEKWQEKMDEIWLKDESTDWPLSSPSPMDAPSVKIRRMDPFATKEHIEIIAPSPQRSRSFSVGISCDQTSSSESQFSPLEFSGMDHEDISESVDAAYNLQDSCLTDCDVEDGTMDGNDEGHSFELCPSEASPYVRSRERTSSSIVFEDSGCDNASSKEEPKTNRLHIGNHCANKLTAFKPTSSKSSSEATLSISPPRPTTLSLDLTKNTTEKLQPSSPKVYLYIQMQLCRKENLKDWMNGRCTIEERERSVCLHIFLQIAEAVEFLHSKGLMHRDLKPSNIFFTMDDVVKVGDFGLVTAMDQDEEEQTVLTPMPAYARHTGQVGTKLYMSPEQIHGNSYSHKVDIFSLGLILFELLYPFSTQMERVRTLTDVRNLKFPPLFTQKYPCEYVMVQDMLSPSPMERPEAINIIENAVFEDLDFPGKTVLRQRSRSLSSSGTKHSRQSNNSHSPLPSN
Kind of assay: Dose response cell-based high-throughput screening assay to measure PERK inhibition. [Related pubchem assays: 1416 ]. Type of assay: functional.

In assay [3] the target is T1, Eukaryotic translation initiation factor 2-alpha kinase 3. Description: Counterscreen assay for PERK inhibitors: Dose response cell-based high throughput screening assay to measure inhibition of PERK at 6 hours. [Related pubchem assays: 1522, 1416 ]. The class given is functional. (In general: The purpose of a counterscreen is to sort out artefacts and off-target activity.)

Assay [4] deals with T2, Protein skinhead-1 (Caenorhabditis elegans, UniProt P34707).
T2 sequence (P34707 whole entry): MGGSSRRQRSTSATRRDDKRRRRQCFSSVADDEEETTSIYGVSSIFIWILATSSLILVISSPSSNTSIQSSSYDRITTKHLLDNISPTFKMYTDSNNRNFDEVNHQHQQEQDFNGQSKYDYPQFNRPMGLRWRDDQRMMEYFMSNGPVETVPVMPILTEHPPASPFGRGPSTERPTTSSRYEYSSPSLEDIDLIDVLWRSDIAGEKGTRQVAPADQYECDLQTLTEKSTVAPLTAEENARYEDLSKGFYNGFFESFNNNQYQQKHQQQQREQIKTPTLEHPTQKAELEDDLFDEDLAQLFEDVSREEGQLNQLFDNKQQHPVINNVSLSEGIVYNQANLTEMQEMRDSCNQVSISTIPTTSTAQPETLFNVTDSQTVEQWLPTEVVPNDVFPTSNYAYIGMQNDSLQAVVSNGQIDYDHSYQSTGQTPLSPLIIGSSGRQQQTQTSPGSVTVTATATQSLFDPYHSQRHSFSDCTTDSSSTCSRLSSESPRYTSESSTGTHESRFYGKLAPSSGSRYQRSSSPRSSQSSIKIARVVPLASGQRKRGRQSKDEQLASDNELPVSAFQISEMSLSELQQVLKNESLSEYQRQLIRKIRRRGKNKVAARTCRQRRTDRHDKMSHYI
The class given is functional.

Assay [5] can be described thus: Cytotoxicity screening for potential Inhibitors of Bacterial Capsule Biogenesis. [Related pubchem assays (depositor defined):AID488970]. Type of assay: functional.
The test system of assay [6] is INS1. Kind of assay: beta cell apoptosis inhibitors, cytokine rescue, dose response, luminescence, retest (AID 449756).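 Also: cell death triggered by IL-1 beta plus TNF-alpha plus IFN-gamma mixture; protective hits raise ATP signal compared with cytokine alone wells.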 Type of assay: functional, cell-based. The note with it: Rattus norvegicus, INS1.
In assay [7] the test system is HeLa. Kind of assay: HeLa cell cytotoxicity, dose response, cytotoxicity control, 24 h, cherry-picked samples (AID 504726).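 Also: potency for cytotoxicity as loss of luminescence signal.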 The class given is functional, cell-based. To be noted: Homo sapiens.
The target of assay [8] is T3, ORF 73 (Human herpesvirus 8, UniProt O40947).
T3 sequence (O40947 whole entry): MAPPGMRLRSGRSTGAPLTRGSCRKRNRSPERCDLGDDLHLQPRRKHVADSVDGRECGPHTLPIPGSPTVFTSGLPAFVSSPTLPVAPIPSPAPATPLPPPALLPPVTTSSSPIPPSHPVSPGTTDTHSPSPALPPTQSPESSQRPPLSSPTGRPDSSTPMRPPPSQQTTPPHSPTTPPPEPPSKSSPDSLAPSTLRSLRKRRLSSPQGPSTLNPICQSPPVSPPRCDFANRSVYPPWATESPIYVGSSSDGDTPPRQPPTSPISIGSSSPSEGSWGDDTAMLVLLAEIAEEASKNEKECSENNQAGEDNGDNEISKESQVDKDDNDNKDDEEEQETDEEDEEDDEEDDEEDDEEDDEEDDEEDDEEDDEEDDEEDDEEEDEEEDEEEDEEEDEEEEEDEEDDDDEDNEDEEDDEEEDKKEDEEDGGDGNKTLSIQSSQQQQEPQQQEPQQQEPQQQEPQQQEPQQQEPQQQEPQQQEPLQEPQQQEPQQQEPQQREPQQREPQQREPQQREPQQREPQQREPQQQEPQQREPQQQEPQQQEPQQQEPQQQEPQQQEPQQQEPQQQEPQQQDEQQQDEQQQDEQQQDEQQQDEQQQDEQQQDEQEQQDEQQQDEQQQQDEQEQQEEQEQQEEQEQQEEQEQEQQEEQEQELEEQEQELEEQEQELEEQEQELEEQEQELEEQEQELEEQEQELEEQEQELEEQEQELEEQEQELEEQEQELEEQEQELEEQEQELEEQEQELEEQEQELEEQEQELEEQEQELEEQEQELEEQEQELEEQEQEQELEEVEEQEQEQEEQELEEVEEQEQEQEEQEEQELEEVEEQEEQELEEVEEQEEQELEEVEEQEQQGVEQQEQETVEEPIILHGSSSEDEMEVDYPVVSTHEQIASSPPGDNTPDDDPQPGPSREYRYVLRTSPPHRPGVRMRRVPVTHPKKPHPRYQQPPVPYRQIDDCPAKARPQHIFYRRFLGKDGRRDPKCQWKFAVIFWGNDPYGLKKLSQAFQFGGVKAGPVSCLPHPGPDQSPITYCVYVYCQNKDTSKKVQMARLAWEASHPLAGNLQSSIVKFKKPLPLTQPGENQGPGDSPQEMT
Description: inhibitors of C-LANA binding to LBS DNA, dose response, biochemical, fluorescence polarization, cherry-picked samples (AID 504725).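 Also: fluorescence polarization of a labeled DNA duplex reporting LANA DNA binding; potency is for inhibitors that block LANA binding to the DNA.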 More on the design: species or system Human gammaherpesvirus 8.

Assay [9] concerns the target T4, Endoribonuclease toxin MazF (Escherichia coli K-12, UniProt P0AE70).
T4 sequence (P0AE70 whole entry): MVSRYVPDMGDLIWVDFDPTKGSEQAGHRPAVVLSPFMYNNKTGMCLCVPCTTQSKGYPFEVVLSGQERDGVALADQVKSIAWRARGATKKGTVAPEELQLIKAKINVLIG
Kind of assay: fluorescent RNA oligo signal without MazF, dose response, counter-screen for MazEF activator project, biochemical, fluorescence, single-stranded RNase substrate (AID 588502). Type of assay: functional.

The target in assay [10] is T4, Endoribonuclease toxin MazF. Description: MazF toxin RNase activators, dose response, biochemical, fluorescence, single-stranded RNA substrate, uHTS hits (AID 588481). The class given is functional.
The subject of assay [11] is Salmon testes DNA. Kind of assay: DNA intercalators displacing acridine orange, dose response, artefact control for KSHV LANA DNA-binding inhibitor project, biochemical, fluorescence polarization, cherry-picked samples, set 2 (AID 504727). More on the design: species or system Salmonidae.
Assay [12] concerns the target Peroxisome proliferator-activated receptor gamma/Nuclear receptor corepressor 2 (Homo sapiens, UniProt P37231+Q9Y618). Type of assay: functional.
Assay [13] addresses Photoreceptor-specific nuclear receptor (Homo sapiens, UniProt Q9Y5X4). The class given is functional.
Assay [14] concerns the target Peroxisome proliferator-activated receptor gamma/Nuclear receptor coactivator 3 (Homo sapiens, UniProt P37231). Description: TR-FRET dose response biochemical High Throughput Screening assay for agonists of the steroid receptor coactivator 3 (SRC-3) recruitment by the peroxisome proliferator-activated receptor gamma (PPAR gamma): non-selective agonists. [Related pubchem assays: 1301 (Confirmation screen.), 1048 (Primary screen.)]. Type of assay: functional. On the technique in general: Time-resolved FRET reads energy transfer from a long-lived donor to a nearby acceptor.

Assay [15] addresses Peroxisome proliferator-activated receptor gamma/Nuclear receptor coactivator 1 (Homo sapiens, UniProt P37231). Kind of assay: TR-FRET dose response biochemical High Throughput Screening assay for agonists of the steroid receptor coactivator 1 (SRC-1) recruitment by the peroxisome proliferator-activated receptor gamma (PPAR gamma): non-selective agonists. [Related pubchem assays (depositor defined):AID1300, AID1808, AID504735, AID631]. Type of assay: protein assay.

For assay [16], the target named is Peroxisome proliferator-activated receptor gamma/Nuclear receptor coactivator 2 (Homo sapiens, UniProt P37231). Kind of assay: TR-FRET dose response biochemical High Throughput Screening assay for agonists of the steroid receptor coactivator 2 (SRC-2) recruitment by the peroxisome proliferator-activated receptor gamma (PPAR gamma): non-selective agonists. [Related pubchem assays: 1297, 1032 ]. The class given is functional.
Chain of Peroxisome proliferator-activated receptor gamma/Nuclear receptor coactivator 2 (P37231 whole entry): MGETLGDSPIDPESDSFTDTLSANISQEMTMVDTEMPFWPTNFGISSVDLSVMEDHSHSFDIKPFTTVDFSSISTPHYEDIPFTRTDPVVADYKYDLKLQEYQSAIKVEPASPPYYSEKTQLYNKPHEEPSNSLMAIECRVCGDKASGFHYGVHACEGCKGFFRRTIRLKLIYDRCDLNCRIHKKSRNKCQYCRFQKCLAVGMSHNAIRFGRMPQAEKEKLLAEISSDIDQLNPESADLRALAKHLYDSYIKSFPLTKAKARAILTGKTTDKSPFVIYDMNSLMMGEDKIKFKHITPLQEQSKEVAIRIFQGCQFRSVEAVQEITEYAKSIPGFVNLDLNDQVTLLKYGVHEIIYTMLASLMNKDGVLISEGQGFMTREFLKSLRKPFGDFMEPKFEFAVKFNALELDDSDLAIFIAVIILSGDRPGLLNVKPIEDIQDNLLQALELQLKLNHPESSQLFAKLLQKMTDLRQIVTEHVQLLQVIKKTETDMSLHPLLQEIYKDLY
Chain of Peroxisome proliferator-activated receptor gamma/Nuclear receptor coactivator 2 (Q15596 whole entry, further chain): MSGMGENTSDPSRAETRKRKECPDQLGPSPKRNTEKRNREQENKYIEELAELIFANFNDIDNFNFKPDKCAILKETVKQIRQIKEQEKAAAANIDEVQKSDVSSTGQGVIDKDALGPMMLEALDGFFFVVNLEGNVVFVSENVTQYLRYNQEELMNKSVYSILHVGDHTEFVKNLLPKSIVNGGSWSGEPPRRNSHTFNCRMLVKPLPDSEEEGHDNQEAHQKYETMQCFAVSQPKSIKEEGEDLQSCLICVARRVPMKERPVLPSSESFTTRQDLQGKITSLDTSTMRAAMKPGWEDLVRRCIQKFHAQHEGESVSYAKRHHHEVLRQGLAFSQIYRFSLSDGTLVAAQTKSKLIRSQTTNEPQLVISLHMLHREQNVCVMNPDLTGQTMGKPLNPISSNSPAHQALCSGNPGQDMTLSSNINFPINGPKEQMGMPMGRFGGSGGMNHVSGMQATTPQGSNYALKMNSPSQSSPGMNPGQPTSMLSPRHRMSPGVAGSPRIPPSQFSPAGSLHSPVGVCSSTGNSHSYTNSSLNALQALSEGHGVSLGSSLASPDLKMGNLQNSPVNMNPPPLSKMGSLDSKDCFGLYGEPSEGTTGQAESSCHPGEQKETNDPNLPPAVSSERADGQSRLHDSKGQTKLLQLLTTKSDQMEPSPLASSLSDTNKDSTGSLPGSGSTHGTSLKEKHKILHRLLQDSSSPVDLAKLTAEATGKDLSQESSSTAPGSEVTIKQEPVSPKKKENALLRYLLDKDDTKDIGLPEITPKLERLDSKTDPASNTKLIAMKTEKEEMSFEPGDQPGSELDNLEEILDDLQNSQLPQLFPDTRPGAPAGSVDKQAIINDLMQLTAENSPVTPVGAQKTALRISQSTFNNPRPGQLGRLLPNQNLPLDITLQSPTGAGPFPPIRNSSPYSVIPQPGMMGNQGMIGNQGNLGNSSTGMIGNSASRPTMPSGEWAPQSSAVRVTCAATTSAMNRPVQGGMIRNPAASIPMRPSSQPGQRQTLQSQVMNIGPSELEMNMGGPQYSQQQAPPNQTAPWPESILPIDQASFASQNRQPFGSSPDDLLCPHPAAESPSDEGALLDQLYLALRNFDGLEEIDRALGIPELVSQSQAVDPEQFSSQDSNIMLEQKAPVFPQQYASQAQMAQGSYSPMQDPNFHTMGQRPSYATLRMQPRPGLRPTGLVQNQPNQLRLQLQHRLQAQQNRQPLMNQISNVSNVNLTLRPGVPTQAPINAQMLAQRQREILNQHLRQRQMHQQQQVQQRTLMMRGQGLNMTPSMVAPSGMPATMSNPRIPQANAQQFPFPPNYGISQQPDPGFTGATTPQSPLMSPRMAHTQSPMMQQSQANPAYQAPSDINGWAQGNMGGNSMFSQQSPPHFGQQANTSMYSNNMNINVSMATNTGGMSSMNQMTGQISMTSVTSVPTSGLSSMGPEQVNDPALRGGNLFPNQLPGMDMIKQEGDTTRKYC

Chain of Lysosomal acid glucosylceramidase (P04062 whole entry): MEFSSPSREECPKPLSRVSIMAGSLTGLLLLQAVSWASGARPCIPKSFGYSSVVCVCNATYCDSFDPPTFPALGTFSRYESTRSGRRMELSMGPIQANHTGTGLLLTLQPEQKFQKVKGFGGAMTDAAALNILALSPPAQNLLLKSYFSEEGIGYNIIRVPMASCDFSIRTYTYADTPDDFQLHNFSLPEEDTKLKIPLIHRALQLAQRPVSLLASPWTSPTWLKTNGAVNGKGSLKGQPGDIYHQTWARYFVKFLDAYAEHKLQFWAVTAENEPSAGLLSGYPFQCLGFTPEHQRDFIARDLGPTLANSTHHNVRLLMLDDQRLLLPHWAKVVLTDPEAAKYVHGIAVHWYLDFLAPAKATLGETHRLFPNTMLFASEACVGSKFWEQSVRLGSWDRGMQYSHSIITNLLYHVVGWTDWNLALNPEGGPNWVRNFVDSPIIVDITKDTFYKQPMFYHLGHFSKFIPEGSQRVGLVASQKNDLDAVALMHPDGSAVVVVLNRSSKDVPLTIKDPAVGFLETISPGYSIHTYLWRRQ
Chain of Photoreceptor-specific nuclear receptor (Q9Y5X4 whole entry): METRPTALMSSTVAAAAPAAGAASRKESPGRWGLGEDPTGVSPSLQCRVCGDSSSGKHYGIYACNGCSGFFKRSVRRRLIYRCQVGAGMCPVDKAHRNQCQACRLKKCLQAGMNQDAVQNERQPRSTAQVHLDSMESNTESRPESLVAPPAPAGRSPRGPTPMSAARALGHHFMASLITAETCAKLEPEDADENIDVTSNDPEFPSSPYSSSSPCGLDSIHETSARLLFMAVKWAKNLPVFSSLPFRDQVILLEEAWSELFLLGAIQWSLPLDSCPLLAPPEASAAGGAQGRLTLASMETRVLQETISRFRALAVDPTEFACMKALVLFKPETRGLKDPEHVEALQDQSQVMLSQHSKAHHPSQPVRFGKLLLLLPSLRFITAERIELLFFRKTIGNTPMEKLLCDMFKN
Chain of Peroxisome proliferator-activated receptor gamma/Nuclear receptor coactivator 3 (P37231 whole entry): as the sequence (P37231 whole entry) above
Chain of Peroxisome proliferator-activated receptor gamma/Nuclear receptor coactivator 3 (Q9Y6Q9 whole entry, further chain): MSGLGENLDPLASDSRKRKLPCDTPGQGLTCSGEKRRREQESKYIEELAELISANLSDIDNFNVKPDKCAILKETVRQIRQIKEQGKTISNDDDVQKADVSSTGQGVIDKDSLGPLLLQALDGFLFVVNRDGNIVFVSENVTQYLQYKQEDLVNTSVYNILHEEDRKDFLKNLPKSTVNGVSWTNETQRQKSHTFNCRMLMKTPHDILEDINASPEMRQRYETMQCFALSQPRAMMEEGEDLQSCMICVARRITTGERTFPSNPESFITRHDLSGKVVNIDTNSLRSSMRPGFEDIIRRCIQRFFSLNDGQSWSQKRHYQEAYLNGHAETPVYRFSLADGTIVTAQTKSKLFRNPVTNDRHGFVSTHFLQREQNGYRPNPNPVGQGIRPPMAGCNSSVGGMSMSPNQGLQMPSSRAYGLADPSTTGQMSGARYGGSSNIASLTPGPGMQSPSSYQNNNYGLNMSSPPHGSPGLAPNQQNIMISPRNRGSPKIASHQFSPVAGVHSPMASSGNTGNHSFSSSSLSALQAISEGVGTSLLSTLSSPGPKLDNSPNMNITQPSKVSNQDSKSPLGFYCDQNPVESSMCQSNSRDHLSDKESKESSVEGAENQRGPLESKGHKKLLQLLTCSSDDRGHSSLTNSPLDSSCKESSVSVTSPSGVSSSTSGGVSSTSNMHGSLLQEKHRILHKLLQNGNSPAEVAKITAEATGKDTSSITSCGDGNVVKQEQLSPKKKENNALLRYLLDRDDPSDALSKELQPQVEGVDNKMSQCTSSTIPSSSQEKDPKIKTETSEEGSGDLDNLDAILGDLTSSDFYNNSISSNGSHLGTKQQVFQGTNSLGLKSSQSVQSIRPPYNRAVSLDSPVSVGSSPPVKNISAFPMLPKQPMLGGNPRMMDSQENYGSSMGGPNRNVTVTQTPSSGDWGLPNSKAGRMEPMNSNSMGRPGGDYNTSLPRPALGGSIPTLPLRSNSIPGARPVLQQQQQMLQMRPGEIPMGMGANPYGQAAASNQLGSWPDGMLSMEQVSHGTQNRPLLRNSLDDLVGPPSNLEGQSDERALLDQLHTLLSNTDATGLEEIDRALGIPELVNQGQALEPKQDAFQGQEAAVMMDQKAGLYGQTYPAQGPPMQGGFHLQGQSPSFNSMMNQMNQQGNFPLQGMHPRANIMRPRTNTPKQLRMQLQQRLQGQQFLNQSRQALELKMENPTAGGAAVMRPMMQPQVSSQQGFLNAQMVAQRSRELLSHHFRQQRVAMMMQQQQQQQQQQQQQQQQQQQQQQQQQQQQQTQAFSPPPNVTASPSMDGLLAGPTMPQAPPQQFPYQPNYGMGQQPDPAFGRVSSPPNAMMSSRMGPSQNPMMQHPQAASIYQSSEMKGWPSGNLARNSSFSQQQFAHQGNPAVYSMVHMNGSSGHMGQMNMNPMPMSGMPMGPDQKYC

For the molecule `CC(=O)N1C(C(=O)O)CSC1c1cccc(C)c1` (stereo unspecified), in [1], the EC50 (usually the concentration that produces a half-maximal response) was > 50 µM (not active).

`CCOc1cc(C(N)=O)cc(Br)c1OC`: the EC50 in assay [2] and in assay [3] was > 55.7 µM (not active) each time. In addition, the IC50 (commonly the midpoint of a concentration-inhibition curve) in assay [4] was > 100 µM (inactive).

Take `O=C(N/N=C/c1ccc(O)cc1O)c1ccc(NC(=O)C2CCCCC2)cc1`: the CC50 – broadly, the concentration that lowers cell viability or growth by half – in [5] was 8.95 µM (active). Further, the AC50 (as a rule, the concentration giving half of the maximal activity seen) in [6] is 4.01 µM (active).

Consider `COc1ccc2c(c1)c1nc3ccccc3nc1n2CC(=O)OC(C)C`, for which the results for the AC50 in assay [7], in assay [8] and in [11] were 216 µM (active), 77 µM (active) and 134 µM (active), respectively. For the same molecule, the values for the EC50 in [9] and in assay [10] were 19.6 µM (active) and > 99 µM (inactive), respectively.

On to `COC(=O)c1cc(Br)c(=O)n(-c2nccs2)c1`, for which the IC50 in assay [12] is 6.29 µM (active); in assay [13], > 39.8 µM (not active). The EC50 was > 79.4 µM (not active) in [14], > 79.4 µM (inactive) in assay [15] and > 79.4 µM (not active) in assay [16].
